From ChEMBL document CHEMBL3132829, “Optimization of triazole-based TGR5 agonists towards orally available agents” (Medchemcomm, 2013) come the findings set out here.

Common to all, as to assay type: ADME, organism-based, Canis lupus familiaris
A short description of series [1]: Volume of distribution at steady state in beagle dog at 1 mg/kg, iv and 3 mg/kg, po by LC-MS/MS analysis. To be noted: in vivo, read-out: Vdss.
Series [2] in a line: Cmax in beagle dog at 1 mg/kg, iv and 3 mg/kg, po by LC-MS/MS analysis. As to conditions: in vivo.
Series [3] is described as follows: Oral bioavailability in beagle dog at 3 mg/kg by LC-MS/MS analysis. To be noted: in vivo.
The nature of series [4]: Half life in beagle dog at 1 mg/kg, iv and 3 mg/kg, po by LC-MS/MS analysis. As to conditions: in vivo.
Series [5] is described as follows: Tmax in beagle dog at 1 mg/kg, iv and 3 mg/kg, po by LC-MS/MS analysis. To be noted: in vivo.

On to `COc1cccc(-n2nnc(C3CC3)c2C(=O)N(C)c2ccc(C#N)cc2)c1`, for which the Vd in series [1] stood at 4.6 L/kg. The same molecule registered a Cmax in series [2] of 510 nM. In addition, the bioavailability in series [3] was 17%. For the same molecule, the half-life in series [4] is 4.7 h. Besides, in series [5], the Tmax stood at 0.25 h.

One may read the Cmax as the highest concentration seen after dosing. Broadly, the bioavailability is the share of a dose that reaches the circulation, judged against a reference dose that is usually intravenous. Lower therefore signals little systemic uptake. As a reminder, the half-life is how long it takes for the measured level to halve. As usually defined, the Tmax is the time at which the peak concentration occurs.
